Data: patent US6992193B2, “Sulfonylamino phenylacetamide derivatives and methods of their use” (Adolor Corporation, priority 2003, dated 2006)
Structures can show the parent of a compound that is named as a salt. Where two headings read alike, the source gives them in different places.

How the values were obtained:
[1] = target: CYP3A4 (Homo sapiens, UniProt P08684); experiment: Inhibition of CYP3A4 conversion of dibenzylfluorescein to fluorescein; format: in vitro ADME
Experimental: (§1) Inhibition of CYP2C9 and CYP3A4
(§2) These assays were carried out as described using CYP2C9 and CYP3A4 conversion of dibenzylfluorescein (DBF) to fluorescein (F).

[2] = target: T1, cloned human μ opioid receptor (Homo sapiens, UniProt P35372); experiment: [3H]diprenorphine binding to cloned human μ opioid receptor
T1 construct: expressed in transfected cells
T1 sequence (P35372 whole entry): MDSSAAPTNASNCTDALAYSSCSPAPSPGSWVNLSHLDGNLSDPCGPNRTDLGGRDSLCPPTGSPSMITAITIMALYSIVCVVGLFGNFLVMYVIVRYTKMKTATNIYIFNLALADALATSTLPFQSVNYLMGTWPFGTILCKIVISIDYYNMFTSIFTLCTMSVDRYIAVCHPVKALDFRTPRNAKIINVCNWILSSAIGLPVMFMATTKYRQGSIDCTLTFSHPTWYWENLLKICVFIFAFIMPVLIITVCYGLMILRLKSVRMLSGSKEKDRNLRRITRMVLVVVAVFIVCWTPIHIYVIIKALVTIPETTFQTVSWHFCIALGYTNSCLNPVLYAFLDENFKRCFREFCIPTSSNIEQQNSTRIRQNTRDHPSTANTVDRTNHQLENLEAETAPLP
Experimental: (§3) IC50 values were obtained by nonlinear analysis of the data using GraphPad Prism version 3.00 for Windows (GraphPad Software, San Diego). Ki values were obtained by Cheng-Prusoff corrections of IC50 values.
(§4) After dilution in buffer A and homogenization as before, membrane proteins (10-80 μg) in 250 μL were added to mixtures containing test compound and [^3H]diprenorphine (0.5 to 1.0 nM, 40,000 to 50,000 dpm) in 250 μL of buffer A in 96-well deep-well polystyrene titer plates (Beckman). After incubation at room temperature for one hour, the samples were filtered through GF/B filters that had been presoaked in a solution of 0.5% (w/v) polyethylenimine and 0.1% (w/v) bovine serum albumin in water. The filters were rinsed 4 times with 1 mL of cold 50 mM Tris HCl, pH 7.8 and radioactivity remaining on the filters determined by scintillation spectroscopy. Nonspecific binding was determined by the minimum values of the titration curves and was confirmed by separate assay wells containing 10 μM naloxone.
(§5) To determine the equilibrium dissociation constant for the inhibitors (Ki), radioligand bound (cpm) in the presence of various concentrations of test compounds was measured. […] The nonlinear regression fit was performed using the program Prism® (GraphPad Software, San Diego, Calif.). The Ki values were then determined from the […] values by the following equation, [formula] • where [ligand] is the concentration of radioligand; and • Kd is the equilibrium dissociation constant for the radioligand.

[3] = target: T2, cloned human δ opioid receptor (Homo sapiens, UniProt P41143); experiment: [3H]diprenorphine binding to cloned human δ opioid receptor
T2 construct: expressed in transfected cells
T2 sequence (P41143 whole entry): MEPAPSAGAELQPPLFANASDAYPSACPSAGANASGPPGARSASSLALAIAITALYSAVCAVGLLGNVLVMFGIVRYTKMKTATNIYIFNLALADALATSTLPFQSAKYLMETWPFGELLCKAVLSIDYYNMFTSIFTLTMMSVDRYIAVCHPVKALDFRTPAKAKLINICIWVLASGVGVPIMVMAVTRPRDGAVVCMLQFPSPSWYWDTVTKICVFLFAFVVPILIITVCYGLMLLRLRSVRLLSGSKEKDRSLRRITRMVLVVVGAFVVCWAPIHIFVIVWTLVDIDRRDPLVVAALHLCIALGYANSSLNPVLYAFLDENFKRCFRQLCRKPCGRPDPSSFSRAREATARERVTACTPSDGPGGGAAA
Experimental: as §3, §4, §5

[4] = target: T3, CYP2D6 (Homo sapiens, UniProt P10635); experiment: Inhibition of CYP2D6 catalyzed conversion of MAMC to HAMC; format: in vitro ADME
T3 construct: purchased BD Biosciences
T3 sequence (P10635 whole entry): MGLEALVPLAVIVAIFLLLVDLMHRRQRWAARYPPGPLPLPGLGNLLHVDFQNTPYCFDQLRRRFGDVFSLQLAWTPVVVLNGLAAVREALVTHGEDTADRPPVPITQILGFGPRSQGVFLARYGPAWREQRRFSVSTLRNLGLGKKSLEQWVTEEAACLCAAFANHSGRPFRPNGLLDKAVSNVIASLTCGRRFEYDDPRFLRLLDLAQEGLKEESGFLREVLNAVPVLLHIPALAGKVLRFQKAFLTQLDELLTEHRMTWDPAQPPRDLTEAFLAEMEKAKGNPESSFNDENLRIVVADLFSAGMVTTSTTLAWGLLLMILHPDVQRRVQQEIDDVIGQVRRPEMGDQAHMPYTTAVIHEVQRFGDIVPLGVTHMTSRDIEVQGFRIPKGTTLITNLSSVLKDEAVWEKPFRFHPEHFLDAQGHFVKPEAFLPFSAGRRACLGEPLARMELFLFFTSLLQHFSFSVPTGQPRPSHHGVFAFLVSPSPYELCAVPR
Experimental: Inhibition of CYP2D6 Catalyzed Conversion of MAMC to HAMC
Microsomes containing baculovirus expressed human recombinant CYP2D6 and MAMC were purchased from BD Biosciences. The method is a modification of the method provided by BD Biosciences.
• Assay Buffer=50 mM KPO4, 15 μg/mL NADP^+, 0.30 mg/mL glucose-6-phosphate, 0.20 mg/mL MgCl2, 0.96 U/mL glucose-6-phosphate dehydrogenase, 2.5 μM MAMC, pH 7.4. • Dilution Buffer=50 mM KPO4, pH 7.4 • Enzyme Buffer=150 mM KPO4, pH 7.4 • Stop Solution=80% acetonitrile, 20% 0.5 M Tris Base Procedure:
The assays were done in black 96 well plates (VWR Cat# 22221-572) and contained: 40 μL assay buffer, 10 μL test compound in dilution buffer and 50 μL of 10-15 pmol/mL CYP2D6 in enzyme buffer. Final concentrations: (100 mM KPO4, pH 7.4, 7.9 μM NADP^+, 0.36 mM glucose-6-phosphate, 0.4 mM MgCl2, 0.38 U/mL glucose-6-phosphate dehydrogenase, 1 μM MAMC (BD Biosciences), 0.5 pmol CYP2D6 (BD Biosciences))
For large experiments, assay buffer and test compound were added using the MiniTrak IV (Packard Biosciences), otherwise they were added using 25-250 μL and 5-100 μL 8 channel electronic pipettors (BioHit). CYP2D6 was added using 25-250 μL 8 channel electronic pipettor.
Titrations are done in either 96 well deep-well plates (Beckman) or 96 well microtiter plates (Costar), an initial dilution in dilution buffer is prepared from stock solutions in DMSO to start either 8 (1:6) or 12 (1:3.15) serial dilutions. For 1:6 dilutions, 50 μL for each dilution is transferred to 250 μL dilution buffer. For 1:3.15 dilutions, 50 μL for each dilution is transferred to 108 μL dilution buffer. Further details on concentrations will be provided in each experiment. Titrations are done using either 25-250 μL 8 channel electronic pipettor, 30-300 μL 12 channel manual pipettor (Spectrum), or the Multiprobe II. For screening, dilution plates are prepared in dilution buffer in 96 well microtiter plates from masterplates in 100% DMSO using the Multiprobe II or MiniTrak IV. After assay buffer and test compound has been added, the plates and the enzyme buffer are prewarmed at 37° C. for 15 minutes. After prewarming, CYP2D6 is added to then enzyme buffer and then added to the assay plate using 25-250 μL 8 channel electronic pipettor and the plates are incubated for 15 minutes at 37° C. After incubation, 50 μL stop solution is added using 25-250 μL 8 channel electronic pipettor. The plates are then counted on the Fusion (Packard Biosciences) for 4 sec/well using and excitation filter of 390 nm and an emission filter of 460 nm, intensity setting of 1, high detector sensitivity.
Non-specific relative fluorescent units (RFU) are determined in the presence of 10 μM quinidine in wells A1, B1, and C1 of each plate and total RFU determined in wells D1, E1, F1 in the absence of test compound. Specific HAMC production is the difference between total and nonspecific. For each compound, a percent inhibition of HAMC production is calculated by: % I=(1−(A/B))*100 • where A=cpm specifically bound for test compound • B=cpm specifically bound in the absence of test compound For experiments where the plates are registered in the biological database, % I is determined automatically by the biological database. Titrations
IC50's are calculated using nonlinear regression to a one-site model using GraphPad Prism or a VB algorithm fitting the data to that equation.

[5] = target: CYP2C9 (Homo sapiens, UniProt P11712); experiment: Inhibition of CYP2C9 conversion of dibenzylfluorescein to fluorescein; format: in vitro ADME
CYP2C9, sequence (P11712 whole entry): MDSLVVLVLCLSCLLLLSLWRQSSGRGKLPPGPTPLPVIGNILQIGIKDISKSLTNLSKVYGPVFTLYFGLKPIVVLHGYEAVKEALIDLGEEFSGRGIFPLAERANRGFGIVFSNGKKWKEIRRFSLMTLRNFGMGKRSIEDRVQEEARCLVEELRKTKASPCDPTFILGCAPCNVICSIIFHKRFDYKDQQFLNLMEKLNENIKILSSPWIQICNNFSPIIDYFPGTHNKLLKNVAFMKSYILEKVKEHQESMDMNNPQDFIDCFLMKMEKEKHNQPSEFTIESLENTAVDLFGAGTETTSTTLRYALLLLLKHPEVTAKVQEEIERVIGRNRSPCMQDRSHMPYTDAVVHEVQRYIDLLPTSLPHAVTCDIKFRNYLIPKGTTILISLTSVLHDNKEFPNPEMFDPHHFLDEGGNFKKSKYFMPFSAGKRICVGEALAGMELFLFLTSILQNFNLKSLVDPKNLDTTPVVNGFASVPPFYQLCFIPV
Experimental: as §1, §2

[6] = tested on: cytochrome P450 enzymes (CYP2D6, CYP3A4, CYP2C9); experiment: Overall evaluation of inhibition of major drug metabolizing hepatic cytochrome P450 enzymes; format: in vitro ADME, human
[7] = DBF to fluorescein conversion, read-out: IC50(CYP3A4)
[8] = inhibition of [3H]diprenorphine binding, cloned human μ receptor, read-out: Ki(μ)
[9] = inhibition of [3H]diprenorphine binding, cloned human δ receptor, read-out: Ki(δ)
[10] = MAMC to HAMC conversion, read-out: IC50(CYP2D6)
[11] = DBF to fluorescein conversion, read-out: IC50(CYP2C9)

CYP3A4, sequence (P08684 whole entry): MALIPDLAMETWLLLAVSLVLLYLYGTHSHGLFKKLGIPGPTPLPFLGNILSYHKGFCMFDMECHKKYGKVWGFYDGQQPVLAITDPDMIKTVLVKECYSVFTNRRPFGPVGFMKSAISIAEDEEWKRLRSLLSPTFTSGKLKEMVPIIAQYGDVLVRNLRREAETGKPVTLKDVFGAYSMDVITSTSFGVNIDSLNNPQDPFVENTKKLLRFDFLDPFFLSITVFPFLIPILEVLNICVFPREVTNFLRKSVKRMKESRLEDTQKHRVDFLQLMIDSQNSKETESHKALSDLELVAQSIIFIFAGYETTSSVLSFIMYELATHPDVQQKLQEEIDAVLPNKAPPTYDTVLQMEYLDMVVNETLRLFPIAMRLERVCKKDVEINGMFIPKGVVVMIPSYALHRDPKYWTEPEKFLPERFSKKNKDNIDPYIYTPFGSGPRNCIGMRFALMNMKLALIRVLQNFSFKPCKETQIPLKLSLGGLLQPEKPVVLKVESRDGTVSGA

Row | Structure (SMILES) | IC50 [1, 7] [nM] | Ki [2, 8] [nM] | Ki [3, 9] [nM] | IC50 [4, 10] [nM] | IC50 [1] [nM] | IC50 [5] [nM] | Ki [2] [nM] | Ki [3] [nM] | IC50 [4] [nM] | IC50 [5, 11] [nM] | activity toward the cytochrome P450 (summary in words) [6]
1 | CN(C(=O)Cc1cccc(CNS(C)(=O)=O)c1)[C@H](CN1CCCC1)c1ccccc1 [Example 11, 2-[3-(methanesulfonylamino-methyl)-phenyl]-N-methyl-N-[1-(S)-phenyl-2-pyrrolidin-1-yl-ethyl]-acetamide hydrochloride] | > 10000 | 1900 | 1500 | 1400 |  |  |  |  |  |  | 
2 | CN(C(=O)Cc1ccc(CNS(C)(=O)=O)cc1)[C@H](CN1CCCC1)c1ccccc1 [Example 12, 2-[4-(methanesulfonylamino-methyl)-phenyl]-N-methyl-N-[1-(S)-phenyl-2-pyrrolidin-1-yl-ethyl]-acetamide] |  |  |  |  | > 10000 | > 10000 | 470 | > 3000 | 12000 |  | 
3 | CN(C(=O)Cc1ccc(CNS(C)(=O)=O)cc1)[C@H](CN1CC[C@H](O)C1)c1ccccc1 [Example 13, N-{2-[3-(S)-hydroxy-pyrrolidin-1-yl]-1-(S)-phenyl-ethyl}-2-[4-(methanesulfonylamino-methyl)-phenyl]-N-methyl-acetamide hydrochloride] | > 10000 |  |  | 9300 |  |  | 140 | 190 |  | > 10000 | 
4 | CCS(=O)(=O)NCc1ccc(CC(=O)N(C)[C@H](CN2CC[C@H](O)C2)c2ccccc2)cc1.Cl [Example 14, 2-[4-(ethanesulfonylamino-methyl)-phenyl]-N-{2-[3-(S)-hydroxy-pyrrolidin-1-yl]-1-(S)-phenyl-ethyl}-N-methyl-acetamide hydrochloride] | > 10000 |  | 510 | > 10000 |  |  | 1000 |  |  | > 10000 | metabolically stable in regard to their activity toward the cytochrome P450
5 | CC(C)S(=O)(=O)NCc1ccc(CC(=O)N(C)[C@H](CN2CC[C@H](O)C2)c2ccccc2)cc1.Cl [Example 15, N-{2-[3-(S)-hydroxy-pyrrolidin-1-yl]-1-(S)-phenyl-ethyl}-N-methyl-2-{4-[(propane-2-sulfonylamino)-methyl]-phenyl}-acetamide hydrochloride] | > 10000 | 1100 | 470 | > 10000 |  |  |  |  |  | > 10000 | metabolically stable in regard to their activity toward the cytochrome P450
6 | CCCS(=O)(=O)NCc1ccc(CC(=O)N(C)[C@H](CN2CC[C@H](O)C2)c2ccccc2)cc1.Cl [Example 16, N-{2-[3-(S)-hydroxy-pyrrolidin-1-yl]-1-(S)-phenyl-ethyl}-N-methyl-2-{4-[(propane-1-sulfonylamino)-methyl]-phenyl}-acetamide hydrochloride] | > 10000 |  |  | > 10000 |  |  | 730 | 100 |  | > 10000 | metabolically stable in regard to their activity toward the cytochrome P450
7 | CCCCS(=O)(=O)NCc1ccc(CC(=O)N(C)[C@H](CN2CC[C@H](O)C2)c2ccccc2)cc1 [Example 17, 2-{4-[(butane-1-sulfonylamino)-methyl]-phenyl}-N-{2-[3-(S)-hydroxy-pyrrolidin-1-yl]-1-(S)-phenyl-ethyl}-N-methyl-acetamide hydrochloride] | 7000 |  |  | 7200 |  |  | 1000 | 170 |  | > 10000 | 
8 | CN(C(=O)Cc1ccc(CNS(=O)(=O)c2ccccc2)cc1)[C@H](CN1CC[C@H](O)C1)c1ccccc1 [Example 18, 2-[4-(benzenesulfonylamino-methyl)-phenyl]-N-{2-[3-(S)-hydroxy-pyrrolidin-1-yl]-1-(S)-phenyl-ethyl}-N-methyl-acetamide hydrochloride] | 4300 | 880 | 83 | 3400 |  |  |  |  |  | 8000 | 
9 | CN(C(=O)Cc1ccc(CNS(=O)(=O)c2ccc(F)cc2)cc1)[C@H](CN1CC[C@H](O)C1)c1ccccc1 [Example 19, 2-{4-[(4-fluoro-benzenesulfonylamino)-methyl]-phenyl}-N-{2-[3-(S)-hydroxy-pyrrolidin-1-yl]-1-(S)-phenyl-ethyl}-N-methyl-acetamide hydrochloride] | 2900 |  |  | 6300 |  |  | 1100 | 64 |  | > 10000 | 
10 | Cc1ccc(S(=O)(=O)NCc2ccc(CC(=O)N(C)[C@H](CN3CC[C@H](O)C3)c3ccccc3)cc2)cc1 [Example 20, N-{2-[3-(S)-hydroxy-pyrrolidin-1-yl]-1-(S)-phenyl-ethyl}-N-methyl-2-{4-[(toluene-4-sulfonylamino)-methyl]-phenyl}-acetamide hydrochloride] | > 10000 | 700 |  | 4900 |  |  |  | 28 |  | > 10000 | 
11 | CN(C(=O)Cc1ccc(CNS(=O)(=O)Cc2ccccc2)cc1)[C@H](CN1CC[C@H](O)C1)c1ccccc1 [Example 21, N-{2-[3-(S)-hydroxy-pyrrolidin-1-yl]-1-(S)-phenyl-ethyl}-N-methyl-2-[4-(phenylmethanesulfonylamino-methyl)-phenyl]-acetamide hydrochloride] | 5600 | 480 |  | 5300 |  |  |  | 170 |  | > 10000 | 
12 | CN(C(=O)Cc1ccc(NS(C)(=O)=O)cc1)[C@H](CN1CC[C@H](O)C1)c1ccccc1 [Example 25, N-{2-[3-(S)-hydroxy-pyrrolidin-1-yl]-1-(S)-phenyl-ethyl}-2-(4-methanesulfonylamino-phenyl)-N-methyl-acetamide hydrochloride] | > 10000 |  |  | 4900 |  |  | 100 | 180 |  |  | 
